Assay results as given in ChEMBL document CHEMBL1158887, “Novel chromone derivatives from the fungus Aspergillus versicolor isolated from the marine sponge Xestospongia exigua” (J Nat Prod, 2003).
The source made the active and inactive calls. The calls are words filed in the database; no cut-off is given here.

Assays:
Format in all cases: functional, organism-based
Saccharomyces cerevisiae = experiment: Antimicrobial activity against Saccharomyces cerevisiae DMS 1333 at 5 and 10 ug after 24 hrs by agar diffusion method
Escherichia coli = experiment: Antimicrobial activity against Escherichia coli DMS 10290 at 5 and 10 ug after 24 hrs by agar diffusion method
Bacillus subtilis = experiment: Antimicrobial activity against Bacillus subtilis DMS 2109 at 5 and 10 ug after 24 hrs by agar diffusion method

Row | Compound | Activity (Saccharomyces cerevisiae) | Activity (Escherichia coli) | Activity (Bacillus subtilis)
1 | COC1(C)Cc2ccc3c(=O)c(C)c(C)oc3c2CO1 (stereo not drawn) | inactive | inactive | inactive
2 | Cc1cc2ccc3c(=O)c(C)c(C)oc3c2cn1 | inactive | inactive | –
3 | COC1OC(C)=Cc2ccc3c(=O)c(C)c(C)oc3c21 (stereo not drawn) | inactive | inactive | inactive
